Laboratory results taken from patent US6281250A, “Retinyl ethers, derivatives and analogues and inhibition of breast carcinogenesis” (Southern Research Institute, priority 1999, dated 2001).
Entries after “also recorded” stand apart in the source; their conditions may differ.

Legend:
[1] = 24 hours or similar, protected from light and air; Shealy et al, 1997; cited from earlier work
[2] = target: T1, cellular retinol-binding protein (CRBP) (Rattus norvegicus, UniProt P02696); test: Binding to cellular retinol-binding protein (CRBP): inhibition of [3H]retinol binding, sucrose density-gradient sedimentation; conditions: for Percent Inhibition of [3H] Retinol Binding (CRBP Assay): 150-fold molar excess of unlabelled test retinoid, rat testes cytosol
T1 construct: portions of rat testes cytosol (1 mg protein) were incubated; from tissue; host or cells: rat testes cytosol
T1 sequence (P02696 1-135): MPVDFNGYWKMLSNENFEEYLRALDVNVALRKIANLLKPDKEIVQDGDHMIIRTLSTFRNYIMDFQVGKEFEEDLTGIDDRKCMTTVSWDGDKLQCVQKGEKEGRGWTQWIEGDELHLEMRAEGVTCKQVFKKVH
Procedure: Binding affinities of the retinyl ethers for CRBP were determined by sucrose, density-gradient, sedimentation analysis as described before (Sani et al., 1980). Briefly, portions of rat testes cytosol (1 mg protein) were incubated with [^3 H]retinol (50 pmol) in the presence or absence of a 150-fold molar excess of unlabeled retinol or the test retinoids. The preparations after dialysis were analyzed by 5-20% sucrose density gradient sedimentation. For measuring the competitive binding of the unlabeled retinoids, inhibition of [^3 H]retinol binding to CRBP by unlabeled retinol is regarded as 100%. The mean and standard deviation calculated from the relative inhibitions obtained from multiple determinations were used as the relative binding affinities of the various retinyl ethers.
The group of retinyl benzyl ethers has now been evaluated for binding to CRBP. Binding to CRBP, as defined for Table I, at approximately 60% or higher was rated as strong; at 40-60%, as moderate; at 20-40%, as low.
^a Per cent inhibition of binding of tritiated retinol to CRBP by a
150-fold molar excess of the unlabelled test retinoid (Sani et al., 1980,

[3] = system: TPA-induced ornithine decarboxylase (ODC); test: Inhibition of TPA-induced ornithine decarboxylase (ODC) in mouse skin; type: in vivo
Excerpt: (§1) Earlier, several alkyl, alkenyl, or alkynyl retinyl ethers had been assayed for inhibition of TPA-induced ornithine decarboxylase (ODC) in mouse skin and for the suppression of DMBA-initiated and TPA-promoted mouse-skin papillomas (Shealy et al., 1997). In comparison with control groups, these retinyl ethers were ineffective. Only a few representatives of the benzyl ethers were selected for tests in these assays. […] Because of these and the earlier results (Shealy et al., 1997), testing of retinyl benzyl ethers in the ODC and papilloma assays was discontinued.

mouse-skin papillomas = test: Suppression of DMBA-initiated and TPA-promoted mouse-skin papillomas; type: in vivo; conditions: mouse-skin papilloma assay
Excerpt: as §1

[4] = system: MNU-induced mammary cancer; test: Short-term (90-day) assay against MNU-induced mammary cancer in rats (Expts. 2 and 3); type: in vivo, rat (female Sprague-Dawley); conditions: for effectiveness in reducing the number of tumors per rat: in feed
Procedure: (§2) Retinoid diet mixtures were stored at 4° C. […] The animals were palpated for mammary tumors 2×/week. […] Also, five rats/group had complete necropsies performed.
(§3) The 2,5-dimethoxybenzyl (3b) and 4-methoxybenzyl (3e) ethers were tested in the same way in a 90-day study. […] The 2,5-dimethybenzyl (3c) and the 2,3-dimethoxybenzyl (3h) ethers, together with RTMBE for comparison, were likewise assayed according to the same methodology. Prior to the beginning of this study, specimens of the retinoid-diet mixtures were placed under the conditions that were employed during the storage and feeding of RTMBE, 3c, and 3h. The specimens were extracted with butanol, and the extracts were analyzed by HPLC. […] Testing of 3c and 3h was discontinued, but the RTMBE study was continued until the duration of the study was 180 days (Table 6). The results were similar to those of Experiment 1 (Table 3). The averages of the number of tumors per rat were reduced by 32-35%; in addition, the averages of the tumor weights per rat was 56-70% lower than the average tumor burden of the control group.
and was continued until the studies of 3b, 3c, 3e, and 3h were terminated
90 days after administration of MNU. The RTMBE experiment was continued
until 180 days after MNU administration (Table VI).
kilogram of Teklad diet.

[5] = Analysis of feed samples for stability of retinyl ethers; type: physicochemical; conditions: for % recovery of retinyl ether: Vehicle + Retinoid (only); for stability in diet mixtures: conditions of storage and feeding in animal rooms
Procedure: as §3
^a The values in each column are % recoveries of the retinyl ether from
mixtures of the ether with feed samples and are based on the actual
amounts of the ether that were added.
^b The samples that were analyzed were mixtures of vehicle, retinoid,
and feed (prepared as described by Shealy et al., 1997).
^c Food cups were placed in animal cages within the room that housed
the rats; therefore, temperature (22° C.) and lighting were
identical to those in use during the in vivo tests.

in vivo = conditions: for NOAEL: mouse, in vivo, po; for Toxic Dose: oral gavage in corn oil, 28-29 days; for clinical toxicity (alopecia, scaly skin, limping): oral gavage, up to highest dose (RTMBE and RMoBE-4: Expt. 2)
Procedure: Toxicological evaluations involving measurement of body weights and observations of clinical signs characteristic of retinoid toxicity were accomplished as previously described (Lin et al., 1996).
RTMBE and two of its analogues, together with RME and RPE, were selected for estimation of their toxicities to mice when administered during 28-29 days by gavage in corn oil (Table 8). Mice were evaluated for changes in body weight and for signs of clinical retinoid toxicity (hypervitaminosis A) including alopecia, scaly skin, and limping. In the first experiment, these retinyl ethers were given at equimicromolar doses at three dose levels. The retinyl benzyl ethers (RTMBE, 3c, and 3e) were then tested at higher doses in a second experiment.

[6] = Toxicity observations in rats receiving retinoids in feed; type: in vivo, rat (Sprague-Dawley); conditions: administered in feed
Procedure: as §2

[7] = Mammary tissue-to-plasma concentration after intravenous dosing; type: in vivo, rat (female Sprague-Dawley); conditions: rat, 5 mg/kg i.v., after 24 hr, read-out: ratio of mammary tissue-to-plasma concentrations
[8] = rat, in feed; Shealy et al., 1997; cited from earlier work
[9] = system: carcinogen-induced mammary cancer; conditions: rats; Thompson et al., 1978 / Shealy et al., 1997; cited from earlier work
[10] = system: MNU-induced mammary cancer; conditions: 160 days
Procedure: Briefly, diets were prepared by mixing each retinoid with Wayne meal or Teklad (4%) mash diet. For each kg of diet, the retinoid was dissolved in 12 g ethanol, 19 g trioctanoin, 0.05 mL Tenox 20, and 0.05 mL d,1-alpha tocopherol prior to incorporation into the feed using a Patterson-Kelly blender. Retinoid diet mixtures were stored at 4° C. Portions of each retinoid-diet mixture were analyzed for the added retinoid to ensure homogeneity. Female Sprague-Dawley rats received an i.v. injection of MNU (45 mg/kg body weight) at 50 days of age. Diet supplementation with retinoids was initiated three days after MNU. A group of rats receiving retinyl acetate (1 mmol/kg of diet) served as the positive control. The animals were palpated for mammary tumors 2×/week. At termination of the study, mammary tumors were processed for histological classification. Also, five rats/group had complete necropsies performed. The tissues were examined histologically for pathological lesions as additional toxicological evaluation. Extracts of the liver and mammary gland (5 rats/group) were analyzed by HPLC for retinyl palmitate and/or for the dosed retinoid. Statistical analyses of cancer incidence and latency were determined using logrank analysis, while differences in cancer multiplicity were determined employing the Armitage test.
In this assay, described previously (Grubbs et al., 1995; Shealy el al., 1997), a retinoid dissolved in a solution (vehicle) consisting of ethanol and trioctanoin plus small amounts of Tenox 20 and α-tocopherol was mixed with feed, and the mixture was fed to rats after intravenous injection of MNU.
^a Female Sprague-Dawley rats (10/group) received one i.v. injection of
MNU (45 mg/kg of body weight) at 50 days of age. Diet supplementation with
retinoids was initiated at 52 days of age and was continued until the
study was terminated 160 days after administration of MNU.
^b Treatment with retinoids is stated in millimoles of retinoid per
kilogram of diet (Wayne meal).

[11] = system: MNU-induced mammary tumors; conditions: with MNU, 1 mmol/kg diet
Procedure: The methods employed in the preparation of diets, analyses of retinoid-dietspecimens, and dietary treatment with retinoids of MNU-induced mammary carcinogenesis in Sprague-Dawley rats were described previously (Grubbs et al., 1995; Shealy et al., 1997). Briefly, diets were prepared by mixing each retinoid with Wayne meal or Teklad (4%) mash diet. For each kg of diet, the retinoid was dissolved in 12 g ethanol, 19 g trioctanoin, 0.05 mL Tenox 20, and 0.05 mL d,1-alpha tocopherol prior to incorporation into the feed using a Patterson-Kelly blender. Retinoid diet mixtures were stored at 4° C. Portions of each retinoid-diet mixture were analyzed for the added retinoid to ensure homogeneity. Female Sprague-Dawley rats received an i.v. injection of MNU (45 mg/kg body weight) at 50 days of age. Diet supplementation with retinoids was initiated three days after MNU. A group of rats receiving retinyl acetate (1 mmol/kg of diet) served as the positive control. The animals were palpated for mammary tumors 2×/week. At termination of the study, mammary tumors were processed for histological classification. Also, five rats/group had complete necropsies performed. The tissues were examined histologically for pathological lesions as additional toxicological evaluation. Extracts of the liver and mammary gland (5 rats/group) were analyzed by HPLC for retinyl palmitate and/or for the dosed retinoid. Statistical analyses of cancer incidence and latency were determined using logrank analysis, while differences in cancer multiplicity were determined employing the Armitage test.
^b Average number of palpable mammary tumors.
^c Diet supplementation with retinoids was initiated at 52 days of age
and was continued until the study was terminated 180 days after
administration of MNU. Treatment with retinoids is stated in millimoles of
retinoid per kilogram of diet (Wayne meal).
^d Female Sprague-Dawley rats received one i.v. injection of MNU (50
mg/kg of body weight) at 50 days of age.

[12] = Expt. 3, 0.5 mmol/kg diet, 90 days
[13] = Expt. 3, 1 mmol/kg diet, 90 days
[14] = Expt. 3, 2 mmol/kg diet, 90 days
[15] = After 1 week of 4° C., 10080 min
[16] = After 1 day in food cup (22° C.)
[17] = After 2 days in food cup (22° C.)
[18] = After 3 days in food cup (22° C.)
[19] = Expt. 2, 0.5 mmol/kg diet, 90 days
[20] = Expt. 2, 1 mmol/kg diet, 90 days
[21] = Expt. 2, 2 mmol/kg diet, 90 days

CC#CCOCC#CC [Compound 1e, 2-butynyl ether]
stability in refluxing ethanol [1]: intramolecular cyclization

COc1ccc(COC/C=C(C)/C=C/C=C(C)/C=C/C2=C(C)CCCC2(C)C)cc1OC [Compound 3a, Retinyl 3,4-Dimethoxybenzyl Ether]
Percent Inhibition of [3H] Retinol Binding (CRBP Assay) [2]: 62 ± 8%
activity in ODC assay [3]: not active in the ODC assay
inhibition of papilloma formation (mouse-skin papillomas): ineffective in inhibiting papilloma formation

CC1=C(/C=C/C(C)=C/C=C/C(C)=C/COCc2cc(C)ccc2C)C(C)(C)CCC1 [Compound 3c, Retinyl 2,5-Dimethylbenzyl Ether]
Percent Inhibition of [3H] Retinol Binding (CRBP Assay) [2]: 65 ± 10%
effectiveness in reducing the number of tumors per rat ([4]; 90 days): not effective
Tumors, % of Control Gp. [4, 12]: 104%
Tumors, Avg. No. per Rat [4, 12]: 2.0
Tumors, % of Control Gp. [4, 13]: 171%
Tumors, Avg. No. per Rat [4, 13]: 3.3
Tumors, % of Control Gp. [4, 14]: 109%
Tumors, Avg. No. per Rat [4, 14]: 2.1
% recovery of retinyl ether from feed [5, 15]: 96%
% recovery of retinyl ether from feed [5, 16]: 106%
% recovery of retinyl ether from feed [5, 17]: 96%
% recovery of retinyl ether from feed [5, 18]: 102%
% recovery of retinyl ether from feed ([5]; Immediately After Mixing): 103%
% recovery of retinyl ether [5]: 100%
stability in diet mixtures [5]: essentially unchanged
NOAEL (in vivo): 431 mg/kg/day
Toxic Dose (in vivo): > 431 mg/kg day
clinical toxicity (alopecia, scaly skin, limping) (in vivo): No evidence of clinical toxicity except for scaly skin
toxicity in MNU-mammary cancer studies [6]: not toxic in the mammary carcinogenesis studies

COc1ccc(COC/C=C(C)/C=C/C=C(C)/C=C/C2=C(C)CCCC2(C)C)cc1 [Compound 3e, Retinyl 4-Methoxybenzyl Ether]
binding to CRBP, in words ([2]; 150-fold molar excess): not conducive to CRBP binding
Percent Inhibition of [3H] Retinol Binding (CRBP Assay) [2]: 7 ± 7%
effectiveness compared with RTMBE ([4]; 90-day assays, MNU-induced mammary carcinogenesis): less effective than was RTMBE
reductions in the number of tumors per rat ([4]; 90-day study, 1 and 2 mmol/kg of diet): 37-49%
effectiveness in reducing the number of tumors per rat ([4]; 90 days): effective
Tumors, % of Control Gp. [4, 19]: 71%
Tumors, Avg. No. per Rat [4, 19]: 2.5
Tumors, % of Control Gp. [4, 20]: 63%
Tumors, Avg. No. per Rat [4, 20]: 2.2
Tumors, % of Control Gp. [4, 21]: 51%
Tumors, Avg. No. per Rat [4, 21]: 1.8
NOAEL (in vivo): 433 mg/kg/day
Toxic Dose (in vivo): > 433 mg/kg day
clinical toxicity (alopecia, scaly skin, limping) (in vivo): No evidence of clinical toxicity
toxicity in MNU-mammary cancer studies [6]: not toxic in the mammary carcinogenesis studies
Kp at 24 h [7]: 41 ± 14

COc1cccc(COC/C=C(C)/C=C/C=C(C)/C=C/C2=C(C)CCCC2(C)C)c1OC [Compound 3h, Retinyl 2,3-Dimethoxybenzyl Ether]
Percent Inhibition of [3H] Retinol Binding (CRBP Assay) [2]: 0%
effectiveness in reducing the number of tumors per rat ([4]; 90 days): not effective
Tumors, % of Control Gp. [4, 12]: 114%
Tumors, Avg. No. per Rat [4, 12]: 2.2
Tumors, % of Control Gp. [4, 13]: 104%
Tumors, Avg. No. per Rat [4, 13]: 2.0
Tumors, % of Control Gp. [4, 14]: 145%
Tumors, Avg. No. per Rat [4, 14]: 2.8
% recovery of retinyl ether from feed [5, 15]: 99.7%
% recovery of retinyl ether from feed [5, 16]: 95%
% recovery of retinyl ether from feed [5, 17]: 94%
% recovery of retinyl ether from feed [5, 18]: 97.9%
% recovery of retinyl ether from feed ([5]; Immediately After Mixing): 95%
% recovery of retinyl ether [5]: 98.7%
stability in diet mixtures [5]: essentially unchanged

CC(C)=CCOC/C=C(C)/C=C/C=C(C)/C=C/C1=C(C)CCCC1(C)C [RMBE, retinyl 3-methyl-2-butenyl ether]
accumulation of retinyl palmitate in the liver [8]: did not cause
suppression of MNU-induced mammary cancer [9]: inhibited the development of MNU-induced mammary cancer; also recorded: only modestly active

CC(=O)OC/C=C(C)/C=C/C=C(C)/C=C/C1=C(C)CCCC1(C)C [Retinyl Acetate, retinyl acetate, reference compound]
reduction of the number of tumors per rat ([4]; 90 days, at 1 mmol/kg): 66%
Tumors, % of Control Gp. [4, 20]: 34%
Tumors, Avg. No. per Rat [4, 20]: 1.2
Adenocarcinomas, % of Control Group A ([10]; 1 mmol/kg diet): 70%
Adenocarcinomas, Avg. No. Per Rat ([10]; 1 mmol/kg diet): 4.5
reduction of average number of tumors per rat ([10]; 1 mmol/kg feed): 30%
% of Control Gp., Day 90 [11]: 48%
% of Control Gp., Day 180 [11]: 49%
Avg No. Per Rat (palpable mammary tumors), Day 90 [11]: 1.1
Avg No. Per Rat (palpable mammary tumors), Day 180 [11]: 3.1
accumulation of retinyl palmitate in the liver [8]: a toxic effect produced by efficacious amounts
